17 compounds from US9241947B2, “Boronic acid derivatives and therapeutic uses thereof” (priority 2013, dated 2016) can be followed below.

Like-named read-outs stand apart in the source and are kept apart here.

In assay [1] the test system is KP1081 (NDM-1, TEM-1, SHV-11, CMY-6, CTX-M-15). In words: Carbapenem potentiation against clinical isolate. It is filed as cell-based. As to conditions: Klebsiella pneumoniae, strain KP1081. An excerpt: (§1) The results are present in Table 6.
(§2) The results are present in Table 7.

For assay [2], the target named is T1, NDM-1 (Klebsiella pneumoniae, UniProt C7C422). It counts as biochemical.
T1 sequence (C7C422 29-270 limits assumed): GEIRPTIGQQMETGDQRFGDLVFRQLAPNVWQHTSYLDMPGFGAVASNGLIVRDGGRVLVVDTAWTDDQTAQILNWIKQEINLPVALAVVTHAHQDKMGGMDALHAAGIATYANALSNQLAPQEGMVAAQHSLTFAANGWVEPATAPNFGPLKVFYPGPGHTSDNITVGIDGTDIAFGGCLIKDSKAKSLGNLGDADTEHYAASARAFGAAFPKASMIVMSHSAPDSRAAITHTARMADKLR
Assay [3] concerns ECM6703 pUCP24-NDM-1. It counts as cell-based, E. coli. As to conditions: Compound 1 at fixed 4 μg/ml or 8 μg/ml; NDM-1 producing strain.
The test system of assay [4] is ECM6711 pUCP24-VIM-1. It counts as cell-based, E. coli. As to conditions: Compound 1 at fixed 4 μg/ml or 8 μg/ml; VIM-1 producing strain.
Assay [5] has as its target T1, NDM-1. It is filed as biochemical. As to conditions: read-out: Ki NDM-1, Imipenem.
For assay [6], the target named is T2, VIM-1 (Pseudomonas aeruginosa, UniProt A0A0F7KYQ8).
T2 construct: made in house; host or cells: ECM6711 strain carrying pUCP24-VIM-1 plasmid (culture supernatant, not purified)
It counts as biochemical. As to conditions: cleavage of nitrocefin (200 uM) by VIM-1 supernatant.

Assay [7] relates to clinical isolates expressing class A, B and D carbapenemases. In words: Carbapenem potentiation against panel of clinical isolates. It counts as cell-based. As to conditions: Compound 1 at fixed 5 μg/ml; biapenem, doripenem, imipenem, meropenem; all the strains.
From the text: as §1

Assay [8] concerns the target OXA-48 (Klebsiella pneumoniae, UniProt Q6XEC0). In words: Inhibition of purified class D carbapenemase, biapenem substrate. It is filed as biochemical. As to conditions: purified enzyme.
In assay [9] the target is SHV-12 (Klebsiella pneumoniae, UniProt P0AD64, E235K/G234S/L31Q). In words: Inhibition of nitrocefin cleavage by purified enzyme. It counts as biochemical. As to conditions: nitrocefin substrate; read-out: Ki (SHV-12, NCF). The protocol:
Purified enzymes were mixed with various concentrations of inhibitors in reaction buffer and incubated for 10 min at room temperature. Nitrocefin was added and substrate cleavage profiles were recorded at 490 nm every 10 sec for 10 min.

The subject of assay [10] is EC1064 (NDM-1, CMY-6, CTX-M-15). Description: Carbapenem potentiation against clinical isolate. As to conditions: Escherichia coli, strain EC1064. It is filed as cell-based.
From the text: as §1, §2

The test system of assay [11] is KP1054 (VIM-1, SHV-11). Description: Carbapenem potentiation against clinical isolate. As to conditions: Klebsiella pneumoniae, strain KP1054. It is filed as cell-based.
From the text: as §1, §2

The test system of assay [12] is KP1064 (KPC-2, SHV-11, TEM-1). Description: Carbapenem potentiation against clinical isolate. It is filed as cell-based. As to conditions: Klebsiella pneumoniae, strain KP1064.
From the text: as §1, §2

Assay [13] concerns KP1014 (VIM-1). In words: Carbapenem potentiation against clinical isolate. As to conditions: Klebsiella pneumoniae, strain KP1014. It counts as cell-based.
From the text: as §1, §2

Assay [14] has as its system KP1086 (TEM, SHV, CTX-M-15, OXA-48). In words: Carbapenem potentiation against clinical isolate. It is filed as cell-based. As to conditions: Klebsiella pneumoniae, strain KP1086.
From the text: as §1, §2

Assay [15] deals with AB1144 (NDM-1). Description: Carbapenem potentiation against clinical isolate. It counts as cell-based. As to conditions: Acinetobacter baumannii.
From the text: as §1, §2

Assay [16] has as its system KP1084 (KPC-3, SHV-11, TEM-1). Description: Carbapenem potentiation against clinical isolate. It is filed as cell-based. As to conditions: Klebsiella pneumoniae, strain KP1084.
From the text: as §1, §2

Assay [17] deals with KP1074 (KPC-3, SHV-11, TEM). In words: Carbapenem potentiation against clinical isolate. It is filed as cell-based. As to conditions: Klebsiella pneumoniae, strain KP1074.
From the text: as §1, §2

Assay [18] deals with KP1004 (KPC-2, TEM-1, SHV-11). Description: Carbapenem potentiation against clinical isolate. It counts as cell-based. As to conditions: Klebsiella pneumoniae, strain KP1004.
From the text: as §1, §2

Assay [19] has as its system KP1087 (KPC-2, CTX-M-15, SHV-11, TEM-1). In words: Carbapenem potentiation against clinical isolate. It is filed as cell-based. As to conditions: Klebsiella pneumoniae, strain KP1087.
From the text: as §1, §2

The mark [20] stands for this setting: cleavage of biapenem (100 uM) by NDM-1, read-out: Ki, Biapenem.
The mark [21] stands for this setting: cleavage of tebipenem (100 uM) by NDM-1, read-out: Ki, Tebipenem.

OXA-48, sequence (Q6XEC0 23-265 limits assumed): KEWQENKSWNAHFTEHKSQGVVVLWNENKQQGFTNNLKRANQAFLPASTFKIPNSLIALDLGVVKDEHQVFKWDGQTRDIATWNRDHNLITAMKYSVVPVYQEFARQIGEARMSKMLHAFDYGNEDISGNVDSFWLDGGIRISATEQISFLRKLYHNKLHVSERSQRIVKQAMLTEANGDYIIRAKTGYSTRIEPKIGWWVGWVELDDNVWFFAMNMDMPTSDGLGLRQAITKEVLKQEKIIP
SHV-12, sequence (P0AD64 22-286 L31Q/G234S/E235K): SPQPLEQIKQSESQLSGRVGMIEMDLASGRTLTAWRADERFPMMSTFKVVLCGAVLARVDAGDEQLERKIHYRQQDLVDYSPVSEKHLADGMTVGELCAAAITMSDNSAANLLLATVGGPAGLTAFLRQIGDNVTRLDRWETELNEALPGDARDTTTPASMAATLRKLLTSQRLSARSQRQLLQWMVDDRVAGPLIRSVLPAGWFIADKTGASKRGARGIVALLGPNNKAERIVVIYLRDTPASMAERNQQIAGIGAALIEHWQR

As for `C[C@@H](O)[C@H]1C(=O)N2C(C(=O)[O-])=C(SC3Cn4cnc[n+]4C3)[C@H](C)[C@H]12` (stereo partly drawn) [Biapenem], the MIC in [1] (read-out: Biapenem MIC Alone) is over 10 µg/mL.
Consider `O=C(O)c1cccc2c1OB(O)[C@@H](Sc1nncs1)C2` [Compound 1, (R)-3-(1,3,4-thiadiazol-2-ylthio)-2-hydroxy-3,4-dihydro-2H-benzo[e][1,2]oxaborinine-8-carboxylic acid], for which the Ki is 10 to 100 nM in [2] (setting [20]); over 100 nM in assay [2] (setting [21]); 10 to 100 nM in assay [2] (read-out: Ki, Imipenem); 10 to 100 nM in assay [5]. Besides, the “imipenem MIC in the presence of Compound 1” value in assay [3] and in [4] was “decreased to the level of the strain containing empty vector” throughout. In assay [6], the IC50 was under 1000 nM. Also, the “carbapenem MIC in the presence of Compound 1” value in assay [7] was “significantly reduced”.
Take `O=C(O)c1cccc2c1OB(O)[C@@H](Sc1nnc[nH]1)C2` [Compound 2, (R)-3-(4H-1,2,4-triazol-3-ylthio)-2-hydroxy-3,4-dihydro-2H-benzo[e][1,2]oxaborinine-8-carboxylic acid]: the Ki in [2] (setting [21]) was 10 to 100 nM; in assay [2] (read-out: Ki, Imipenem), under 10 nM; in assay [8] it was 10 to 100 nM; in assay [9] it was under 100 nM; in assay [5], under 10 nM. In addition, the IC50 in [6] was under 1000 nM.
Regarding `NC(=O)CS[C@H]1Cc2cccc(C(=O)O)c2OB1O` [Compound 3, (R)-3-(2-amino-2-oxoethylthio)-2-hydroxy-3,4-dihydro-2H-benzo[e][1,2]oxaborinine-8-carboxylic acid], the inhibition constant Ki in assay [2] (setting [20]) was over 100 nM; in [2] (setting [21]), over 100 nM; in assay [2] (read-out: Ki, Imipenem), over 100 nM; in [8], under 10 nM; in assay [9], 100 to 1000 nM; in assay [5], over 100 nM.
Regarding `Nc1nnc(S[C@H]2Cc3cccc(C(=O)O)c3OB2O)s1` [Compound 4, (R)-3-(5-amino-1,3,4-thiadiazol-2-ylthio)-2-hydroxy-3,4-dihydro-2H-benzo[e][1,2]oxaborinine-8-carboxylic acid], the Ki in assay [2] (setting [20]) was under 10 nM; in assay [2] (setting [21]) it was under 10 nM; in [2] (read-out: Ki, Imipenem), under 10 nM; in assay [8], under 10 nM; in [9] it was under 100 nM; in assay [5] it was under 10 nM. Also, the 50% inhibitory concentration (IC50) in [6] was under 1000 nM.
As for `Cn1nnnc1S[C@H]1Cc2cccc(C(=O)O)c2OB1O` [Compound 5, (R)-2-hydroxy-3-(1-1H-tetrazol-5-ylthio)-3,4-dihydro-2H-benzo[e][1,2]oxaborinine-8-carboxylic acid], the Ki lay within 10 to 100 nM in assay [2] (read-out: Ki, Imipenem) and 10 to 100 nM in [5]. The half-maximal inhibitory concentration (IC50) in assay [6] was at least 1000 nM.
Consider `O=C(O)c1cccc2c1OB(O)[C@@H](Sc1ccccc1)C2` [Compound 6, (R)-2-hydroxy-3-(phenylthio)-3,4-dihydro-2H-benzo[e][1,2]oxaborinine-8-carboxylic acid], for which the inhibition constant Ki in assay [2] (read-out: Ki, Imipenem) is under 10 nM; in assay [5] it was under 10 nM. This compound also came in with a concentration for half-maximal inhibition (IC50) in assay [6] of under 1000 nM.
As to `CC(=O)Nc1nnc(S[C@H]2Cc3cccc(C(=O)O)c3OB2O)s1` [Compound 7, (R)-3-(5-acetamido-1,3,4-thiadiazol-2-ylthio)-2-hydroxy-3,4-dihydro-2H-benzo[e][1,2]oxaborinine-8-carboxylic acid], the inhibitory constant (Ki) in [2] (read-out: Ki, Imipenem) is 10 to 100 nM; in assay [8] it was under 10 nM; in assay [9] it was under 100 nM; in [5] it was 10 to 100 nM. Moreover, in assay [6], the IC50 is under 1000 nM.
For `O=C(O)c1cccc2c1OB(O)[C@@H](Sc1cccnc1)C2` [Compound 8, (R)-2-hydroxy-3-(pyridin-3-ylthio)-3,4-dihydro-2H-benzo[e][1,2]oxaborinine-8-carboxylic acid], the Ki in assay [2] (read-out: Ki, Imipenem) is over 100 nM; in assay [5], over 100 nM. Besides, the 50% inhibitory concentration (IC50) in assay [6] is under 1000 nM.
Consider `NC(=O)CCS[C@H]1Cc2cccc(C(=O)O)c2OB1O` [Compound 9, (R)-3-(3-amino-3-oxopropylthio)-2-hydroxy-3,4-dihydro-2H-benzo[e][1,2]oxaborinine-8-carboxylic acid], for which the inhibitory constant (Ki) in [2] (read-out: Ki, Imipenem) is over 100 nM; in assay [8], 10 to 100 nM; in assay [9] it was 100 to 1000 nM; in [5], over 100 nM. In assay [6], this compound came in with an IC50 of under 1000 nM.
Take `CC(=N)S[C@H]1Cc2cccc(C(=O)O)c2OB1O` [Compound 10, (R)-2-hydroxy-3-(1-iminoethylthio)-3,4-dihydro-2H-benzo[e][1,2]oxaborinine-8-carboxylic acid]: the inhibitory constant (Ki) lay within 10 to 100 nM in [2] (read-out: Ki, Imipenem) and 10 to 100 nM in assay [5]. The same compound displayed an IC50 in assay [6] of at least 1000 nM.
For the compound `O=C(O)c1cccc2c1OB(O)[C@@H](Sc1nccs1)C2` [Compound 11, (R)-2-hydroxy-3-(thiazol-2-ylthio)-3,4-dihydro-2H-benzo[e][1,2]oxaborinine-8-carboxylic acid], the Ki in [2] (read-out: Ki, Imipenem) is over 100 nM; in [9], under 100 nM; in [5], over 100 nM. The IC50 in assay [6] was at least 1000 nM.
As to `O=C(O)c1cccc2c1OB(O)[C@@H](Sc1c[nH]nn1)C2` [Compound 12, (R)-3-(1H-1,2,3-triazol-4-ylthio)-2-hydroxy-3,4-dihydro-2H-benzo[e][1,2]oxaborinine-8-carboxylic acid], the Ki lay within 10 to 100 nM in assay [2] (read-out: Ki, Imipenem) and 10 to 100 nM in assay [5]. The IC50 in [6] was under 1000 nM.
In the case of `O=C(O)c1cccc2c1OB(O)[C@@H](OCc1ccccc1)C2` [Compound 13, (R)-3-(benzyloxy)-2-hydroxy-3,4-dihydro-2H-benzo[e][1,2]oxaborinine-8-carboxylic acid], the Ki in [2] (read-out: Ki, Imipenem) lay in the range of 10 to 100 nM; in assay [5], 10 to 100 nM. Moreover, the IC50 in assay [6] was under 1000 nM.
With `Nn1cnnc1S[C@H]1Cc2cccc(C(=O)O)c2OB1O` [Compound 14, (R)-3-(4-amino-4H-1,2,4-triazol-3-ylthio)-2-hydroxy-3,4-dihydro-2H-benzo[e][1,2]oxaborinine-8-carboxylic acid], the Ki in assay [9] is under 100 nM. In [6], this compound showed an IC50 of under 1000 nM.
As to `C[C@@H](O)[C@H]1C(=O)N2C(C(=O)O)=C(SCCN=CN)C[C@H]12` [Imipenem], the MIC in [10] (read-out: Imipenem MIC Alone) is over 10 µg/mL; in [11] (read-out: Imipenem MIC Alone) it was 1 to 10 µg/mL; in [12] (read-out: Imipenem MIC Alone) it was over 10 µg/mL; in assay [13] (read-out: Imipenem MIC Alone) it was over 10 µg/mL; in [14] (read-out: Imipenem MIC Alone) it was over 10 µg/mL; in [15] (read-out: Imipenem MIC Alone), over 10 µg/mL. The minimal inhibitory concentration (MIC) in assay [16] (read-out: Imipenem MIC Alone) is over 10 µg/mL; in assay [17] (read-out: Imipenem MIC Alone), over 10 µg/mL; in assay [1] (read-out: Imipenem MIC Alone), over 10 µg/mL; in assay [18] (read-out: Imipenem MIC Alone) it was over 10 µg/mL; in assay [19] (read-out: Imipenem MIC Alone), 1 to 10 µg/mL.
Take `C[C@@H](O)[C@H]1C(=O)N2C(C(=O)O)=C(S[C@@H]3CN[C@H](C(=O)N(C)C)C3)[C@H](C)[C@H]12` [Meropenem]: the MIC was over 10 µg/mL in [10] (read-out: Meropenem MIC Alone); over 10 µg/mL in assay [11] (read-out: Meropenem MIC Alone); over 10 µg/mL in assay [12] (read-out: Meropenem MIC Alone); 1 to 10 µg/mL in assay [13] (read-out: Meropenem MIC Alone); over 10 µg/mL in [14] (read-out: Meropenem MIC Alone); over 10 µg/mL in assay [15] (strain AB1144, read-out: Meropenem MIC Alone). Further, the minimal inhibitory concentration (MIC) is over 10 µg/mL in [16] (read-out: Meropenem MIC Alone); over 10 µg/mL in [17] (read-out: Meropenem MIC Alone); over 10 µg/mL in [1] (read-out: Meropenem MIC Alone); 1 to 10 µg/mL in [18] (read-out: Meropenem MIC Alone); over 10 µg/mL in assay [19] (read-out: Meropenem MIC Alone).

The term MIC denotes the lowest concentration that inhibits growth of the organism. A word on the Ki: it is the equilibrium dissociation constant of an inhibitor or competing ligand from its target. What is called IC50 is the concentration needed to halve the response being measured. Low values mean greater potency in that assay, high ones weaker potency in that assay.
